Source: patent US11535872B2, “Microbial strains and uses thereof” (priority 2017, dated 2022)
Like-named read-outs stand apart in the source and are kept apart here.

Assays:
Type in all cases: cell-based, Candida tropicalis
[1] = test system: ΔΔXyl2; conditions: WSH; for starting xylose converted by ΔΔXyl2 with co-substrate: maltose value by 72 hr
[2] = test system: ΔΔXyl2; conditions: YNB media; for starting xylose attenuated/bioconverted by ΔΔXyl2 with co-substrate: binary mixture of xylose and co-substrate
[3] = test system: Y6604 (NCYC 4190); experiment: Xylose utilisation of Y6604 in the presence of increased inhibitor concentrations; conditions: high or increasing inhibitor concentrations, minimal media, shake flasks
Method: FIG. 4 show graphs illustrating xylose utilisation profiles of Y6604 (NCYC 4190) in the presence of increased inhibitor concentrations. Graphs A, B, C, D, E and F represent strain performance in the presence of increasing concentrations of vanillin (VAN), transcinnamic acid (TRANSC), hydroxyl-benzaldehyde (HBA), syringaldehyde (S), furfural (F) and hydroxyl-methyl furfural (HMF) respectively. Indicated values in the legend represent concentrations in mg/100 mL. Xylose values are the mean of two replicates in minimal media in shake flasks;
Strain Y6604 (NCYC 4190) was compared with other xylose-utilizing isolates from the gut of click beetle to assess its inhibitor tolerance and xylose to xylitol conversion. […] Despite slower Y6604 (NCYC 4190) growth in corn stover hydrolysate, xylose consumption and subsequent xylitol production was largely unaffected when compared to other isolates (FIG. 2 A, B) and increased amounts of the sugar alcohol at a comparatively higher rate of production were apparent in hydrolysates obtained from Miscanthus (FIG. 2 C, D) and wheat straw (FIG. 2 E, F). Phylogenetic analysis of the D1/D2 domain confirmed strain identity to be Candida tropiclis (FIG. 3). Having observed the enhanced efficacy of Y6604 (NCYC 4190) in hydrolysates with high inhibitor loadings, the isolate's tolerance threshold to common inhibitors by measuring xylose uptake rates (FIG. 4) was then assessed.

Row | Molecule | starting xylose converted by ΔΔXyl2 with co-substrate [1] | rate of xylose conversion by ΔΔXyl2 with co-substrate [2] | starting xylose attenuated/bioconverted by ΔΔXyl2 with co-substrate [2] [%] | effect on xylose utilisation/uptake [3] | other results
1 | OC[C@H]1O[C@H](O[C@H]2[C@H](O)[C@@H](O)C(O)O[C@@H]2CO)[C@H](O)[C@@H](O)[C@@H]1O (mixture of isomers) [maltose] | more than 95% | 0.5 g xylose per hr | 70 | – | rate of xylose conversion by ΔΔXyl2 with co-substrate [1]: 0.78 g/h
2 | O=Cc1ccc(CO)o1 [HMF, hydroxyl-methyl furfural] | – | – | – | enhance pentose uptake | –
3 | O=C(CO)[C@@H](O)[C@H](O)[C@H](O)CO [fructose] | – | around 0.4 g xylose per hr | 54 | – | –
4 | O=Cc1ccco1 [furfural] | – | – | – | completely abolished xylose uptake | –
5 | O=C[C@H](O)[C@@H](O)[C@@H](O)[C@H](O)CO [galactose] | more than 90% | – | 34 | – | rate of xylose conversion by ΔΔXyl2 with co-substrate [1]: 0.5 g/h; time to complete co-substrate exhaustion [1]: ≤ 7 h; arabitol accumulation with co-substrate ([1]; compared to other potential co-substrates (FIG. 7G)): high amount of arabitol accumulation
6 | OCC(O)CO [glycerol] | around 94% | around 0.4 g xylose per hr | – | – | –
7 | COc1cc(C=O)cc(OC)c1O [syringaldehyde] | – | – | – | delayed xylose utilisation | –
8 | O=C(O)/C=C/c1ccccc1 [transcinnamic acid] | – | – | – | delayed xylose utilisation | –
9 | COc1cc(C=O)ccc1O [vanillin] | – | – | – | delayed xylose utilisation | –
10 | hydroxyl-benzaldehyde | – | – | – | delayed xylose utilisation | –
